Source: US7642239B2, “Inhibition of placenta growth factor (PLGF) mediated metastasis and/or angiogenesis” (Center for Molecular Medicine and Immunology, priority 2005, dated 2010)
Ends that are not written are not given here.

Test system: MDA-MB-231 s.c. xenograft
Assay: Subcutaneous MDA-MB-231 xenograft growth and lung metastasis
Assay type: in vivo, nude mice
Experimental: The tissue-culture-grown human breast tumor cell line, MDA-MB-231, was implanted subcutaneously (s.c.) on the flanks of nude mice. When tumors were visible, the mice were weighed and the tumors measured. Treatment with peptides was begun when tumors averaged about 0.06-0.12 cm^3 in volume. Mice were treated with 200-μg peptide in PBS by i.p. injection at 3-4-day intervals for 4 weeks. Animals were weighed and the tumors measured at each treatment. In a second experiment, the control peptide, CPA, was included. Three days after the final treatment, tumors and lungs were harvested. Tumor burden of the lungs (from experiment 1) was determined by counting colonies (<20 cells), clusters (>20-100 cells), and nodules (>100 cells) seen in all the lung tissue on a total of 4 slides or sections for each mouse. Data are presented as the average number of each size of metastasis for each treatment group (3-4 mice/group). The total number of each was summed for each treatment group, and divided by the total number of mice in that group. The percent inhibition for metastasis was determined by the formula: % inhibition=(# mock-treated−# treated/# mock-treated)×100.
To test for therapeutic activity of the peptide, BP1, mice were implanted with human breast cancer cells, MDA-MB-231, which produces lung metastases spontaneously when implanted as a subcutaneous tumor. When the tumors averaged 0.12 cm^3 in volume, either mock-treatment or therapy with BP1 was initiated at 200 μg, two times per week for 4 weeks. […] In a subsequent experiment, treatment was commenced when tumors were 0.07-0.08 cm^3. After 4 weeks of treatment, as described, the mean volume of the mock- and CPA-treated tumors was 0.25 and 0.33 cm^3, respectively, whereas BP1-treated tumors averaged 0.04 cm^3 (P<0.05 BP1 vs. mock- or CPA-treated tumors) (FIG. 3A).

SHRYRLAIQLHASDSSSSCV [BP1]
reduction in tumor size compared to mock-treated controls (start at 0.12 cm^3, 200 μg two times per week for 4 weeks): 37%
mean tumor volume after 4 weeks of treatment (subsequent experiment, start at 0.07-0.08 cm^3, 200 μg i.p., mock 0.25): 0.04 cm^3
lung colonies (<20 cells) per mouse (total lung tissue/mouse, mock 36±6): 5±2
lung clusters (>20-100 cells) per mouse (total lung tissue/mouse, mock 76±19): 9±2
lung nodules (>100 cells) per mouse (total lung tissue/mouse, mock 78±25): 5±2
decrease in the number of metastatic lung nodules (vs mock-treated): 94%
